In assay [1] the test system is soybean plant crop. In words: Field test runs: acceleration of senescence/maturation and time to harvest of soybean crop after spraying at a reproductive growth stage. The format is in vivo. The source says:
The solution of 2-chloroethylphosphonic acid may be prepared by mixing together 2-chloroethylphosphonic acid (known as ethephon in liquid form and obtainable from a number of sources) with a water solution or a liquid medium that is non-toxic to the particular legume desired. Most commercial sprayers are suitable for preparation and/or application of the solution described herein. To prepare the mixture, during test runs, a tank comprising a capacity of 600 gallons and an agitator was used. Continuous agitation of the mixture during preparation seems to provide best results.
In some embodiments, the 2-chloroethylphosphonic acid solution may comprise a water-soluble urea comprising approximately 46% nitrogen. A dry form of nitrogen may be part of the water solution or it may be part of the 2-chloroethylphosphonic acid solution with suitable mixing. Mixing is performed continuously in certain embodiments. During some test runs, approximately 4 pounds of urea per acre was added to about 10 gallons (83.4 pounds) of water per acre, followed by approximately 1.5 pounds of 2-chloroethylphosphonic acid per acre. In some embodiments, the 2-chloroethylphosphonic acid may also comprise a spreader-sticker. The spreader-sticker may be added, for example, at a rate of 2 ounces (0.125 pounds) per acre and may be silicone-based. A suitable silicone-based spreader-sticker, for example, is Kinetic by Helena. Other non-silicone-based sticker-spreaders may also be used.
Application of the 2-chloroethylphosphonic acid solution should be performed when the leguminous plant crop comprises at least 50% of the planted crops in the field at a seed growth stage. In some embodiments, the leguminous plant may be at an R5 growth stage when application of the solution described herein is performed. During R5, a fully developed seed pod may comprise, for example, a match-head sized seed in the pod. In some embodiments, the leguminous plant may be at growth stage R5.5, or between R5 and R6 for application. In some embodiments, application is performed when at least 50% of the planted leguminous plant crop is at an R6 reproductive growth stage, as described above. For example, R6 may be visually characterized or identified when at least 50% of the leguminous plant crop comprises at least one seed or “green bean” (in a top pod of the plant) comprising a width equal to its pod cavity. In some embodiments, the leguminous plant may be at growth stage R6.5, or at or between R6 and R7. During some test runs, senescence was achieved within 5 days after application of the solution described herein, with successful harvesting of quality crop. By way of example, prior to application, the physiological stage of the leguminous plant may be determined by inspecting the terminal (or last growing point at the top) end of the leguminous plant crop for a seed pod. Triggering maturation at the R5 growth stage may produce smaller seeds. For commercial production, triggering at R6 may be most successful to obtain more seed at a greater weight.
Application of the solution described herein may perform best at temperatures below 98° F. In some embodiments, application of the solution is performed at a temperature below about 90° F. Successful test runs, by way of example, described below were performed at 88° F.
During trial runs, soybean plant crops were planted on plot sizes ranging from 25-150 acres. Soybean plant crops were planted on soil used for rotational crops including, for example, grass crop, corn crop, or grain crop. Crops were seeded approximately 1-1.5 inches deep with a twin line planter. No other pretreatments were performed on the soil during test runs. Ground application was performed on raised beds using a flow jet capable of delivering a minimum of 10-20 gallons per acre. Raised beds were used during some test runs. Furrow irrigation was used to water the soybean plant crop, applying water to the top end of each furrow. […]

Assay [2] relates to soybean plant crop. The experiment in a line: Composition, yield and seed quality analysis of harvested soybeans after spraying at R6. The format is in vivo. How it is done:
During trial applications of the solutions described herein, composition, yield and seed quality was analyzed. It was discovered that even under challenges such as hotter than normal temperatures and drought conditions, the solutions described herein allow for manipulation of the seasons for advantageous harvesting of high quality soybeans. Soybean crop (variety “Linda,” a group 5.6 determinate soybean) was planted in 8-24 row strips following a fall corn crop. Herbicide was applied at 3 pints/acre and crop was fertilized with 20 gallons of 32-0-0 per acre, followed by irrigation as needed. Soil maps indicated two different soil types (Harlingen clay and Olmito clay) in the field that bisected the field, with the second replication having slightly less Olmito clay in the treated area. As they are both components of the other, the field was consistent to visual observation. […] The growth stage of the beans at this point is still very rapid but the dry weight and nutrient accumulation begins to slow in the whole plant by R6.5 which is just 7-10 days later in many cases. Another indicator of the R6 stage is visual signs of senescence in the older leaves of the plants.
Sprayer comprising the 2-chloroethylphosphonic acid solution was prepared and applied as described above at the following rates of Table. 1. Weather conditions at the time of spraying can be found in Table 2.
The sprayed crops were monitored daily to observe phenotypic changes which included leaf color, leaf drop, pod desiccation, and any visual between treatments. After two days post-spraying, photographs were taken to show the changes in color due to senescense taking place.
Harvest was slightly delayed (about 3 days) due to unavailability of the combine, however, even with this delay, harvested crops were sent for composition and seed quality parameters. The actual harvest during these test runs was well below a soybean moisture content of a market standard 13%.
The 0.75 pounds of the 2-chloroethylphosphonic acid solution per acre rate was highest in crude fat, crude protein, digestible energy and total digestible nutrients (TDN) while being lowest in crude fiber. […] FIGS. 1 through 4 illustrate major nutritional components affected by treatment rate, where the term “a.i.” is meant to refer to the 2-chloroethylphosphonic acid solution described above. FIG. 1 is a graph of crude protein affected by treatment rate of 2-chloroethylphosphonic acid solution according to an embodiment. FIG. 2 is a graph of crude fat affected by treatment rate of 2-chloroethylphosphonic acid solution according to an embodiment. FIG. 3 is a graph of crude fiber affected by treatment rate of 2-chloroethylphosphonic acid solution according to an embodiment. FIG. 4 is a graph of total digestible nutrients affected by treatment rate of 2-chloroethylphosphonic acid solution according to an embodiment.

On to `O=P(O)(O)CCCl` [2-chloroethylphosphonic acid], for which the “acceleration of maturation in soybean plants” value in the assay with soybean plant crop [1] (about 0.375 pounds per acre at the R-6 stage) is given as “significant acceleration of maturation”. Also, the “accelerated maturation of a soybean plant” value in the assay with soybean plant crop [1] (about 0.75 pounds per acre at the R-6 reproductive growth stage) is reported as “Accelerated maturation”. Also, the “harvesting stage reached sooner than without spraying” value with soybean plant crop [1] (following application at a reproductive growth stage) is 10 to 14 days. Moreover, in the assay with soybean plant crop [1] (in some cases, high temperature and high humidity environments), the “maturation achieved faster than when not treated” value was “up to 40 days”. For the same compound, in the assay with soybean plant crop [1] (in some cases, versus typical minimum 39-day period), the “days shaved off waiting times” value is “about 30 days”. In the assay with soybean plant crop [1] (some test runs), the “time to senescence after application” value is listed as at most 5 days. The same compound gave a germination rate in the assay on soybean plant crop [1] (trial runs, 25-150 acre plots) of at least 90%. Further, the “total digestible nutrients (TDN) (rank among treatments)” value with soybean plant crop [2] (0.375 pounds per acre, R6) is “Ranked behind that in TDN”. Besides, in the assay on soybean plant crop [2] (0.75 pounds per acre, R6), the “crude fat (rank among treatments)” value is “highest”, the “crude fiber (rank among treatments)” value was “lowest”, the “crude protein (rank among treatments)” value was “highest” and the “digestible energy (rank among treatments)” value is “highest”. Moreover, in the assay on soybean plant crop [2] (0.75 pounds per acre, R6), the “total digestible nutrients (TDN) (rank among treatments)” value is reported as “highest”. Further, the “overall nutrients versus untreated” value in the assay on soybean plant crop [2] (all three treatments (0.375, 0.75, 1.125 pounds per acre)) is listed as “improved overall nutrients”.

(Values after US20240172757A1, “METHOD OF […] A […] CROP” (priority 2021, published 2024).)
